{"source": "ChEMBL document CHEMBL1201862", "about": "“PubChem BioAssay data set” (2004)", "key": {"[1]": {"target": "T1, Replicative DNA helicase DnaB (Mycobacterium tuberculosis, UniProt P9WMR3)", "T1 sequence (P9WMR3 whole entry)": "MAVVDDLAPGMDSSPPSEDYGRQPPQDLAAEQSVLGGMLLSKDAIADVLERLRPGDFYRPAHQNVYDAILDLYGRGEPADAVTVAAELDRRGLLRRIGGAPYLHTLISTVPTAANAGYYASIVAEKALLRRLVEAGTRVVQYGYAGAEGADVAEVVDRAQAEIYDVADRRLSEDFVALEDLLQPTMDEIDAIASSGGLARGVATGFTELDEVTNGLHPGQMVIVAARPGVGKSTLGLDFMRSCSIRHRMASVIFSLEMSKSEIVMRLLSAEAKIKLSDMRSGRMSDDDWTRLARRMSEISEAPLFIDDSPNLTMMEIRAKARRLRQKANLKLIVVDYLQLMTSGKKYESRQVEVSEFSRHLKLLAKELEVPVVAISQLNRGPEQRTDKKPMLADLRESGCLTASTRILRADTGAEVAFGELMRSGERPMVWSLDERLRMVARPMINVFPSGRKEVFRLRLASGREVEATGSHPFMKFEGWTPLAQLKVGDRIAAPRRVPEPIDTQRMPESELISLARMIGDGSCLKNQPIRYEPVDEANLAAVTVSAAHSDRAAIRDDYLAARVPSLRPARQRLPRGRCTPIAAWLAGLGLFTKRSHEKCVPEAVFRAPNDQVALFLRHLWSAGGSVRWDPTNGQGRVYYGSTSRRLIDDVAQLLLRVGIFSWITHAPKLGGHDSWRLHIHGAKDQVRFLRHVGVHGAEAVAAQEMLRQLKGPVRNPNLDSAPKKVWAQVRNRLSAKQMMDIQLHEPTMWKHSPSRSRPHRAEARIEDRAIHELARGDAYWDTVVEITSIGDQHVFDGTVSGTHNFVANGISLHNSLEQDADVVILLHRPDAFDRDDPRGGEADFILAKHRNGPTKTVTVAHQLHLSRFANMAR", "assay": "DnaB intein splicing inhibitors, dose response, biochemical, cell-free fluorescence (AID 449749)", "assay_type": "functional"}, "[2]": {"target": "T2, RNA-binding protein pos-1 (Caenorhabditis elegans, UniProt G5EF15)", "T2 sequence (G5EF15 whole entry)": "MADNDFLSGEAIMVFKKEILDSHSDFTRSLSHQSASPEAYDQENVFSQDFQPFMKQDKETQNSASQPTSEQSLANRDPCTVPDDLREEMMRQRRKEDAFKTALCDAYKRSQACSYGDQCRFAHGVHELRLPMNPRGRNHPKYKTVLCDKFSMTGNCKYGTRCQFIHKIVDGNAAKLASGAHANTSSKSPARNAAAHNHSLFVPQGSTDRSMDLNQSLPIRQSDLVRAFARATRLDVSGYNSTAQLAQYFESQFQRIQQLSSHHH", "assay": "disruptors of C. elegans POS-1 RNA interaction – biochemical, fluorescence polarization, dose response (AID 1964);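 note: purified POS-1 fused to maltose binding protein made in E. coli; potency of compounds blocking POS-1 binding to fluorescent RNA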"}, "ORF 73": {"target": "T3, ORF 73 (Human herpesvirus 8, UniProt O40947)", "T3 sequence (O40947 whole entry)": "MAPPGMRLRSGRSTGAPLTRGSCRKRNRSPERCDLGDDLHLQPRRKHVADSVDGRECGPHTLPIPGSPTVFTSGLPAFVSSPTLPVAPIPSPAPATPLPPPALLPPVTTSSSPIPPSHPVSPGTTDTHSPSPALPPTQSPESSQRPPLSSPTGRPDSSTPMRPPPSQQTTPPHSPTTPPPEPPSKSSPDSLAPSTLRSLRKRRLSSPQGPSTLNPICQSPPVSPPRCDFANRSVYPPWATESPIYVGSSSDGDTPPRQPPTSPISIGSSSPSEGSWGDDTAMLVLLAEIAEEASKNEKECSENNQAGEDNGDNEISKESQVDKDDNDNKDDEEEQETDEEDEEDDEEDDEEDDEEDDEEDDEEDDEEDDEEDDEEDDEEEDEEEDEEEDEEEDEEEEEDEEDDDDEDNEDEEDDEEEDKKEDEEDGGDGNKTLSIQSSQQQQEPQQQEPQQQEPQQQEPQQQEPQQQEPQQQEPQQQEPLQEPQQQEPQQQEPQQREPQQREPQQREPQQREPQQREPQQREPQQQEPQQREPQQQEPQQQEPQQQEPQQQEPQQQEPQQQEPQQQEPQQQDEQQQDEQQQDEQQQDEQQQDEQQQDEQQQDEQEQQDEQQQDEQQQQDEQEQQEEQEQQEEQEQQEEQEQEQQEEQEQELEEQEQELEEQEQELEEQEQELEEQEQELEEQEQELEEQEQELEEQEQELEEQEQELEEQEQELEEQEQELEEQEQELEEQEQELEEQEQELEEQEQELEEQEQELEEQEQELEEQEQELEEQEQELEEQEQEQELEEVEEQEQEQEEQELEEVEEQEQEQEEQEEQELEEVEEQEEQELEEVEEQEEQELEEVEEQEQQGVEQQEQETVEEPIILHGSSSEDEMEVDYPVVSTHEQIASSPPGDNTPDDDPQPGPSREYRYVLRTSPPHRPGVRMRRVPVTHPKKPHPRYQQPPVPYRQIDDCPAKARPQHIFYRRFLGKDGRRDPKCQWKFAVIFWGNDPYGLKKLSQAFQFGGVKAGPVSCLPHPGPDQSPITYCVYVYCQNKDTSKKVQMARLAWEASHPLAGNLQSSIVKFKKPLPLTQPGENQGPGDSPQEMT", "assay": "KSHV LANA DNA-binding disruption – biochemical, fluorescence polarization, cherry-picked samples, dose response (AID 504725);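 note: fluorescence polarization of a labeled DNA duplex reporting LANA DNA binding; potency is for inhibitors that block LANA binding to the DNA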", "set-up": "species or system Human gammaherpesvirus 8"}, "[3]": {"assay": "NIH-3T3 fibroblast cytotoxicity, dose response, cytotoxicity control, cell-based, fluorescence, Alamar Blue, secondary assay (AID 2327);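 note: NIH-3T3 mouse fibroblasts cultured with fluconazole at 8 µg/mL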", "assay_type": "functional"}, "Genome polyprotein": {"target": "Genome polyprotein (dengue virus type 2, UniProt P29990)", "sequence (P29990 2492-3391 limits assumed)": "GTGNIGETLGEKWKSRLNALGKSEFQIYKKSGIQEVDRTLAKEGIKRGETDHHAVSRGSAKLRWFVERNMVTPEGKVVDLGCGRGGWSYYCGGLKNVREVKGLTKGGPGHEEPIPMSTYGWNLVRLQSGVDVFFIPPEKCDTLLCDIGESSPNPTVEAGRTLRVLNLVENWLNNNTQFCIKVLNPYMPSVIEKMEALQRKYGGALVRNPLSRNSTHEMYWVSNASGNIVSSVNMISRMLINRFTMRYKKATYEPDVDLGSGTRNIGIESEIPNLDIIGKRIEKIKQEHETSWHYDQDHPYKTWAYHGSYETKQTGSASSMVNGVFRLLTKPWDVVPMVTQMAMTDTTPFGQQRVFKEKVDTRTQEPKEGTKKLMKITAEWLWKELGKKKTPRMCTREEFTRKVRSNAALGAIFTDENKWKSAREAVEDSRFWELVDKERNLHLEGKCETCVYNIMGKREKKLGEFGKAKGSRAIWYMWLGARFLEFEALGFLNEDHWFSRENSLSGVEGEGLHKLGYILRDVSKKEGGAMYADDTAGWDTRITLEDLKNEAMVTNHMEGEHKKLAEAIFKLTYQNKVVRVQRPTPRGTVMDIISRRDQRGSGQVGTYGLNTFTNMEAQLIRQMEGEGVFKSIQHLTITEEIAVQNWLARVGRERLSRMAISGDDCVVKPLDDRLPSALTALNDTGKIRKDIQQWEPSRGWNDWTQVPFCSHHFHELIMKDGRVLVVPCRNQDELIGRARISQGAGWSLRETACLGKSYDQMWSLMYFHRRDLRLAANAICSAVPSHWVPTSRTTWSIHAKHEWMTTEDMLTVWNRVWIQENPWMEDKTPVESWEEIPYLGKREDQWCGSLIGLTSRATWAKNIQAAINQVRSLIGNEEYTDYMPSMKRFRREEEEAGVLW", "assay": "flavivirus cap methylation enzyme inhibition – biochemical, confirmation dose response, primary screen (AID 588689)", "assay_type": "functional"}, "[4]": {"assay": "fluconazole-exposed Candida albicans growth modulators – fluorescence, retest, confirmation (AID 2467)", "assay_type": "functional, cell-based"}, "Caspase-7": {"target": "T4, Caspase-7 (Homo sapiens, UniProt P55210)", "T4 sequence (P55210 whole entry)": "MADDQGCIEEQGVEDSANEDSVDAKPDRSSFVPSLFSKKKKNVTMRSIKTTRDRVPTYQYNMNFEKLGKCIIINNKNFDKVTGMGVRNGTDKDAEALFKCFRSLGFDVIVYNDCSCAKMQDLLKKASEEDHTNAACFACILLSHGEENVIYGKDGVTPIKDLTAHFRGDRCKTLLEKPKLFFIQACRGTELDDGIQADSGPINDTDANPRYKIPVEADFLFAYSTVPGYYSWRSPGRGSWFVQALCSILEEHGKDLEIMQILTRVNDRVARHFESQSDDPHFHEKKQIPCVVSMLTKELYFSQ", "assay": "caspase-7 enzyme inhibition, selectivity check – biochemical, DEVD-R110 fluorescence, cherry-pick, selectivity assay for caspase-6 inhibitor project, dose response (AID 743295)", "assay_type": "functional"}, "Focal adhesion kinase 1": {"target": "Focal adhesion kinase 1 (Homo sapiens, UniProt Q05397)", "sequence (Q05397 whole entry)": "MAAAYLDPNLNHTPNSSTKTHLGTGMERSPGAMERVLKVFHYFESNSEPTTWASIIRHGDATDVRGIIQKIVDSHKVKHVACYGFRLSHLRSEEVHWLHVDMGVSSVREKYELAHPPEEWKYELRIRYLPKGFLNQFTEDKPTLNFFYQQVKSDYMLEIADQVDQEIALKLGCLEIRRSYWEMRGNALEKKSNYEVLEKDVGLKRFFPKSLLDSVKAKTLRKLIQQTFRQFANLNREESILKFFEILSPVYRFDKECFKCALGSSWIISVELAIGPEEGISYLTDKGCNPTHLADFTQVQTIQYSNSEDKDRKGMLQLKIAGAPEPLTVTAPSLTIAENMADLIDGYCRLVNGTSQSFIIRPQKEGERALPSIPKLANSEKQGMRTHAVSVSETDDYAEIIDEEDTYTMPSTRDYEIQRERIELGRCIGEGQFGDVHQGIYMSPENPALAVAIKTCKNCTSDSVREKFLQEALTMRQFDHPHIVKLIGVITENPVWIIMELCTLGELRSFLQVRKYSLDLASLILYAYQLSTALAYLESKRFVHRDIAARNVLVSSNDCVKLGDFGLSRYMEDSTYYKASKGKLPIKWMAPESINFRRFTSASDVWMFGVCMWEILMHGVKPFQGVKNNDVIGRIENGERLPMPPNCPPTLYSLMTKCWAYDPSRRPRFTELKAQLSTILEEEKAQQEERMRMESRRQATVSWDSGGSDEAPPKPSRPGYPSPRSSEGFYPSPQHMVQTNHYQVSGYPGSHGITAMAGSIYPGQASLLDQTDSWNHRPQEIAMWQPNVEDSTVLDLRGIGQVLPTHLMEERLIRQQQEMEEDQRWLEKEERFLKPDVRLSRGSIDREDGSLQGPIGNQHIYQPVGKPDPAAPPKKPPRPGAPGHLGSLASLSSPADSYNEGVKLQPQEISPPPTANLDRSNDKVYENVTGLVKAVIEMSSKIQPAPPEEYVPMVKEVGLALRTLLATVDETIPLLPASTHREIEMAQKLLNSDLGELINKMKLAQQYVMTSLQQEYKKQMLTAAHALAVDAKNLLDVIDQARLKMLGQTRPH", "assay_type": "functional"}}, "note": "Activity calls are given as the source filed them.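 Throughout, for Ki: measured as one member of a kinome panel.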", "data": [{"smiles": "O=C(NC1=C(Nc2ccc(F)cc2)C(=O)c2ccccc2C1=O)c1ccc(Cl)cc1", "values": [{"measurement": "AC50", "setting": "[1]", "result": "11.8 µM (active)"}]}, {"smiles": "O=C(O)c1ccc2c(c1)[C@@H]1C=CC[C@@H]1[C@H](c1ccccn1)N2", "values": [{"measurement": "EC50", "setting": "[2]", "result": "4.61 µM (inconclusive)"}, {"measurement": "AC50", "setting": "ORF 73", "result": "21.7 µM (active)"}, {"measurement": "EC50", "setting": "[3]", "result": "> 150 µM (inactive)"}, {"measurement": "IC50", "setting": "Genome polyprotein", "result": "26.3 µM (active)"}, {"measurement": "EC50", "setting": "[4]", "result": "> 38 µM (not active)"}]}, {"smiles": "Oc1nc(Nc2ccc(F)cc2)cc2ccccc12", "values": [{"measurement": "AC50", "setting": "Caspase-7", "result": "2.11 µM (active)"}]}, {"smiles": "NC(COc1cncc(-c2ccc3c(c2)C(=Cc2ccc[nH]2)C(=O)N3)c1)Cc1ccccc1", "note": "(stereo not drawn)", "values": [{"measurement": "Ki", "setting": "Focal adhesion kinase 1", "result": "2 µM (active)"}]}]}
